Entries after “also recorded” stand apart in the source; their conditions may differ. Where a SMILES comes first, the peptide text is derived from it. The star is where a group is joined. Cbz = O=C(OCc1ccccc1)* Where only a bound is given, the exact number is not on record here.

The text below walks through data of patent publication US11981918B2, “Differentiation technique to generate dopaminergic neurons from induced pluripotent stem cells” (CEDARS-SINAI MEDICAL CENTER, priority 2018, dated 2024).

The subject of one series is P53. As to the kind of experiment: P53 level in DaN cultures under proteasome inhibition. It is filed as cell-based, human. The conditions noted are these: 24 hrs. An excerpt:
(§1) […]. Western blot showing synuclein degradation under 24 hrs of MG132 proteosomal inhibitor (e). Western blot showing reduced LAMP1 protein in PD DaNs (f). […]. Data were normalized to 02iCTR for each differentiation and presented as a fold change (g). NIRF detection of oxidized dopamine from D30 DaN lysates (h)
(§2) Protein degradation can be largely divided into protosomal and autophagy/lysosomal degradation pathways.

Series [1] concerns α-Synuclein. As to the kind of experiment: α-Synuclein level in DaN cultures under proteasome inhibition. It is filed as cell-based, human. The conditions noted are these: 24 hrs.
From the text: as §1, §2

Another series concerns synuclein. The experiment in a line: In vivo synuclein in striatum after injection of PEP into the ventricles of WT mice. Also noted: species or system mouse. The conditions noted are these: WT mice, 0.3, 3 and 30 μM injected into the ventricles, 1 and 5 days post injection.
Series [2] deals with TH. As to the kind of experiment: In vivo TH in striatum after injection of PEP into the ventricles of WT mice. Also noted: species or system mouse. The following applies: WT mice, 0.3, 3 and 30 μM injected into the ventricles, 1 and 5 days post injection.
Series [3] deals with TH. As to the kind of experiment: TH gene expression timecourse of PEP treatment in DaNs. It is filed as cell-based, human. The conditions noted are these: roughly 8 hours after initial exposure. As to the method: (§3) FIG. 5: Treatment with lysosomal agonists and Elevated p-PKCa in PD lines. Western blot and relative band quantifications of d30 DaNs treated with indicated compounds for 72 hours (a). Baseline levels of p-PKCa in d30 DaNs (b). Day 30 DaNs treated with PEP from multiple PD and control lines(c). Timecourse of PEP treatment and synuclein levels (d) Timecourse of PEP treatment SNCA (e) and TH (f) gene expression. Confirmation of elevated synuclein and p-PKCa in addition control and PD lines (g)
(§4) The elevated phosphorylation of PKCa was absent in the undifferentiated iPSCs and no clear pattern was evident in peripheral blood from the individual patients indicating specificity to the differentiated DaNs. […].

Another series deals with SNCA. As to the kind of experiment: SNCA gene expression timecourse of PEP treatment in DaNs. The conditions noted are these: 4 hours after PEP treatment. It is filed as cell-based, human. As for the experimental part:
as §3, §4

Series [4] deals with various cancer cell lines and primary acute myeloid leukaemia (AML) cells. The following applies: cited from earlier work.
The next series has as its system p-PKCa. As to the kind of experiment: Phosphorylated PKC alpha in iPSC-derived DaNs after PEP005 treatment (western blot). It is filed as cell-based, human. (In general: Immunoblotting shows a protein as a band on a membrane.)
The test system of a further series is TH enzyme. The experiment in a line: TH enzyme amount in iPSC-derived DaNs treated with lysosomal agonists (western blot). Format: cell-based, human. The following applies: both control and PD DaNs, treated for 3 days.
In series [5] the test system is leukemic cell lines and primary AML cells. The following applies: by activating PKCδ and sustained activation of ERK1/2; cited from earlier work.
A further series relates to DaN cultures. Format: cell-based, human. The conditions noted are these: DaN cultures on drug treatment. The source says:
(§5) It is likely that the toxicity of PEP is more specific to highly proliferative cells whereas our differentiated neurons are largely post mitotoic.

The next series deals with PKC C1 domains. The following applies: cited from earlier work.
Series [6] deals with α-Synuclein. The experiment in a line: α-Synuclein protein in iPSC-derived DaNs treated with lysosomal agonists (western blot). Format: cell-based, human. The conditions noted are these: for amount of α-Synuclein protein: DaNs from control lines; for amount of α-Synuclein protein / synuclein levels: treated for 3 days starting at day 27; for synuclein levels: EOSPD DaNs; for α-Synuclein levels: both control and PD DaNs, all treated lines. An excerpt: FIG. 5: Treatment with lysosomal agonists and Elevated p-PKCa in PD lines. […] Baseline levels of p-PKCa in d30 DaNs (b). Day 30 DaNs treated with PEP from multiple PD and control lines(c). Timecourse of PEP treatment and synuclein levels (d) Timecourse of PEP treatment SNCA (e) and TH (f) gene expression.
To test if the Inventors could reduce synuclein levels in our EOSPD DANs through activation of lysosomal specific pathways, the Inventors selected 3 lysosomal agonists. […] Starting at day 27, DaNs were treated for 3 days with the above lysosomal agonists.

In the next series the test system is LC3. The experiment in a line: LC3 protein in DaNs after PEP treatment. It is filed as cell-based, human. The following applies: PD cells.
The test system of a further series is cleaved caspase 3 (CC3). As to the kind of experiment: Cleaved caspase 3 in DaNs after PEP treatment. Format: cell-based, human. The conditions noted are these: DaNs on drug treatment, most easily observed in PD cells; listed as PEP.
From the text: as §4, §5

The subject of the next series is LAMP1. The experiment in a line: LAMP1 protein in DaNs after PEP treatment. The conditions noted are these: PD cells. It is filed as cell-based, human.
A further series concerns PC12 cell model. The conditions noted are these: cited from earlier work.
The test system of series [7] is α-Synuclein. The conditions noted are these: cited from earlier work.
The next series deals with neurons in Brain-Chip. It is filed as cell-based, human.
The mark [8] stands for this setting: time-course, control and PD DaNs.

Turning to `CC(C)C[C@@H](C=O)NC(=O)[C@H](CC(C)C)NC(=O)[C@H](CC(C)C)NC(=O)OCc1ccccc1` [MG132] (Cbz-Leu-Leu-Leu-aldehyde), the P53 level entry in the series on P53 was “accumulation of P53”. Moreover, the α-Synuclein levels entry in the series with α-Synuclein [1] is “no substantial change”.

For the compound `C/C=C(/C)C(=O)O[C@H]1C(C)=C[C@]23C(=O)[C@@H](C=C(CO)[C@@H](O)[C@]12O)[C@H]1[C@@H](C[C@H]3C)C1(C)C` [PEP005, ingenol-3-angelate], the “synuclein in mouse striatum” value in the series with synuclein is “Reduction of synuclein”. Moreover, the “TH in mouse striatum” value in the series on TH [2] is “increase in TH”. Further, the TH gene expression result in the series with TH [3] is “upregulated”. In addition, the SNCA gene expression result with SNCA is “downregulated”. Further, in series [4], the proliferation entry is recorded as “inhibiting proliferation”. The “phosphorylation of PKCa” value in the series on p-PKCa (1 μM for 3 days, DaNs from all iPSC lines) is recorded as “clearly ablated”. Also, the “PKC alpha phosphorylation signal” value in the series with p-PKCa (control and PD DaNs, at endpoint of 72 hours treatment) is recorded as “completely ablating this signal”. The “time in which p-PKCa is degraded in response to drug treatment” value with p-PKCa (setting [8]) is at most 24 h. Further, the “amount of TH enzyme” value in the series on TH enzyme is on record as “increased amount of TH enzyme”; in the series with TH enzyme (listed as PEP), “increase in the amount of TH”. Further, in series [5], the apoptosis result is given as “induces apoptosis”. For the same compound, the LDH result with DaN cultures is given as “nor do the Inventors see an increase in LDH”. In the series on PKC C1 domains, the “selectivity for individual PKC isoforms” value was “no selectivity”. Also, in the series on α-Synuclein [6], the “amount of α-Synuclein protein” value was “significantly reduced”. For the same compound, the synuclein levels entry in the series with α-Synuclein [6] is given as “substantially reduced”. Further, the α-Synuclein levels entry is “reduced” with α-Synuclein [6] and “reduced synuclein in all treated lines” in the series on α-Synuclein [6] (listed as PEP). Also, the “time in which α-Synuclein is degraded in response to drug treatment” value in the series with α-Synuclein [6] (setting [8]) was at most 24 h. For the same compound, the LC3 response entry in the series on LC3 is given as “neither LAMP1 nor LC3 respond”. Further, in the series on cleaved caspase 3 (CC3), the “cleaved (active) caspase 3” value is on record as “marked decrease; also recorded: decrease in the amount of active caspase 3”. Besides, the LAMP1 response result with LAMP1 is recorded as “does not appear to be replicated”; with LAMP1 (listed as PEP), “neither LAMP1 nor LC3 respond”.

For `C=CCNc1ncnc2ccc(Br)cc12` [SMER28], the “Huntington and α-Synuclein aggregates” value in the series with PC12 cell model is given as “reduce”. In the series with α-Synuclein [6], the “amount of α-Synuclein protein” value is “significantly reduced” and the synuclein levels result is given as “only the PKC agonist PEP005 substantially reduced synuclein levels”.

Consider `OC[C@H]1O[C@H](O[C@H]2O[C@H](CO)[C@@H](O)[C@H](O)[C@H]2O)[C@H](O)[C@@H](O)[C@@H]1O` [Trehalose], for which, in the series with α-Synuclein [7], the “clearance of α-Synuclein” value is “promote clearance”. Further, in the series on α-Synuclein [6], the “amount of α-Synuclein protein” value was “not Trehalose significantly reduced” and the synuclein levels result is reported as “only the PKC agonist PEP005 substantially reduced synuclein levels”.

Consider `NC1=N[C@H](O)[C@H]2[C@H]3O[C@]4(O)O[C@@H]([C@@H](O)[C@@]2(N1)[C@@H]4O)[C@]3(O)CO` [tetrodotoxin], for which the “neuron activity (calcium imaging)” value in the series on neurons in Brain-Chip is “Neuron activity ablated”.
